According to patent US4594345A, “Methylflavone-8-carboxylates” (Nippon Shinyaku Co. Ltd., priority 1982, dated 1986):

What was measured:
male mice = assay: Acute toxicity, oral, observed for two weeks; type: in vivo; details: oral 4000 mg/kg, dead/total
Protocol: Acute toxicity is observed for two weeks by oral adminsitration of 4000 mg/kg of the test compounds to male mice. One group consists of four mice. Numbers of dead mice are shown in numerators.

SRS-A = assay: Anti-SRS-A action (SRS-A induced shrinkage of guinea pig ileus); set-up: species or system guinea pig (Hartley strain male); details: treated five minutes before SRS-A (20 units), 5 min; for SRS-A Inhibition Ratio % 10^-6 M: 1 µM; for SRS-A Inhibition Ratio % 10^-7 M: 0.1 µM
Protocol: (§1) The effect of the compounds (I) of the present invention in the treatment of asthma and allergic diseases were evaluated by a passive cutaneous anaphylaxis assay (PCA) in rats and by measuring anti-SRS-A action using ileus of guinea pigs.
Anti-SRS-A action (An anti-action against slow reacting substance of anaphylaxie)
Hartley strain male guinea pigs (300 to 350 grams body weight) are killed and 1.0 to 1.5 cm of ileus is immediately excised from ileocecal parts and is suspended in 10 ml of Tyrode solution (95% O2 -5% CO2 saturation) containing 10^-7 g/ml of atropine and 10^-6 g/ml of pyrilamine. SRS-A (20 units) (the amount of SRS-A showing the same shrinkage as 5 ng of histamine is defined as one unit) prepared by using sensitized guinea pig lung is given to cause shrinkage there. Then antagonistic action of test compounds treated five minutes ago against the shrinkage is measured and recorded via isotonic transducer. [formula] in which A' is a height of shrinkage of SRS-A + test compound and A is that of SRS-A.

carrageenin edema = assay: Carrageenin edema in hind foot of rat (anti-inflammatory action); type: in vivo, rat (SD strain); set-up: concentration or dose not given beside the values; details: rats, oral one hour prior to carrageenin; foot volume three hours after
Protocol: Anti-inflammatory action was evaluated by measuring the effect of the compounds (I) in inhibiting carrageenin edema as illustrated below.
Carrageenin edema in hind foot of rat.
SD strain rats of about 150 grams body weight were used; each group consisted of five rats. Thus, 0.1 ml of 0.5% carrageenin solution in physiological saline water was hypodermically injected to the right hind foot of rat. The test compound was given orally to rats one hour prior to the above carrageenin treatment. Then the volume of the foot before and three hours after the carrageenin treatment was measured and the difference was compared with that of the control group.

[1] = system: passive cutaneous anaphylaxis (PCA); assay: Passive cutaneous anaphylaxis assay (PCA) in rats; type: in vivo, rat (Wister strain); details: Rattus norvegicus, po, 1 h, oral 10 mg/kg, one hour before antigen, read-out: PCA Inhibition Ratio %
Protocol: as §1
(i) Antiserum abundant in homocytotropic antibody is prepared by the same method as Tada and Okumura did (cf. Journal of Immunology, volume 106, page 1002, […]). Thus, one mg (calculated as an amount of protein) of DNP-As (2,4-dinitrophenyl-coupled ascaris extract) prepared by methods of Strejan and Campbell (Journal of Immunology, volume 98, page 893, 1971) and of Eisen (Journal of American Chemical Society, volume 85, page 4593, 1953) and […] pertussis vaccine are administered to each paw of Wister strain rats (180 to 200 grams body weights) by dividing the dose by four. Five days later, 0.5 mg of DNP-As is adminstered into muscle of back. Eight days later from the initial immunization, blood is taken from descending aorta under anesthetizing with ether, the resulting serum is stored at -80° C. and is melted before use.
(ii) Effect of tested compounds is investigated as follows:
Anti-serum obtained by the method (i) is diluted with physiological saline solution double by double successively and 0.05 ml of each diluted solution is administered into back of Wister strain rats (140 to 160 grams body weight) subcutaneously. After 72 hours, a solution of 2 mg (calculated as protein) of DNP-As and 2.5 mg of Evand Blue dissolved in 1 ml of physiological saline solution is administered intravenously at a dose of 5 ml/kg. After thirty minutes from antigen solution administration, the animals are killed and diameters of blue spots appeared at the place where antiserum is administered are measured. The PCA test is conducted by the same method as already described using a diluted solutions of antiserum which always show 10 mm or more of spot diameters and the effect of the test compounds is judged. Thus, antiserum diluted solutions are administered to two places in back. Test compounds are administered orally at the dose of 10 mg/kg one hour before administration of antigen solution. From the skin of reacted parts of killed animals, leaked or emitted dyestuff is extracted [cf. Baeck and Steinetz: J. Pharmacol. Exp. Ther., Vol. 131, page 400 (1961)] and the amount of the dyestuff is measured. The inhibition ratio is calculated by the following expression: [formula] in which R' is an amount of dyestuff in the group treated with the test compounds and A is that in the control group.

mast cells = details: believed; cited from earlier work
allergic asthma = details: cited from earlier work

CCOc1ccccc1-c1oc2c(C(=O)OCCO)cccc2c(=O)c1C [Example 4, Beta-Hydroxyethyl 2'-ethoxy-3-methylflavone 8-carboxylate]
Lethal Ratio (male mice): 0/4 | SRS-A Inhibition Ratio % 10^-6 M (SRS-A): 67.2% | SRS-A Inhibition Ratio % 10^-7 M (SRS-A): 42.4% | % Inhibition (carrageenin edema) (carrageenin edema): 33.9% | inhibition in vivo at 10 mg/kg [1]: 20.5%

Cc1c(-c2ccc(C(C)(C)C)cc2)oc2c(C(=O)O)cccc2c1=O [Example 55, 4'-tertiary butyl-3-methylflavone-8-carboxylic acid]
SRS-A Inhibition Ratio % 10^-6 M (SRS-A): 100% | SRS-A Inhibition Ratio % 10^-7 M (SRS-A): 21.1% | % Inhibition (carrageenin edema) (carrageenin edema): 19.1% | inhibition in vivo at 10 mg/kg [1]: 20.3%

Cc1c(-c2ccccc2OC(C)C)oc2c(C(=O)O)cccc2c1=O [Example 20, 2'-isopropoxy-3-methylflavone-8-carboxylic acid]
SRS-A Inhibition Ratio % 10^-6 M (SRS-A): 38.5% | SRS-A Inhibition Ratio % 10^-7 M (SRS-A): 20.4% | % Inhibition (carrageenin edema) (carrageenin edema): 32.5% | inhibition in vivo at 10 mg/kg [1]: 20.7%

CCCCCc1ccc(-c2oc3c(C(=O)O)cccc3c(=O)c2C)cc1 [Example 58, 3-methyl-4'-n-pentylflavone-8-carboxylic acid]
Lethal Ratio (male mice): 0/4 | SRS-A Inhibition Ratio % 10^-6 M (SRS-A): 40.0% | SRS-A Inhibition Ratio % 10^-7 M (SRS-A): 10.3% | % Inhibition (carrageenin edema) (carrageenin edema): 31.9% | inhibition in vivo at 10 mg/kg [1]: 28.8%

CCN(CC)C(=O)c1cccc2c(=O)c(C)c(-c3ccc(C(C)C)cc3)oc12 [Example 48, 4'-isopropyl-3-methylflavone-8-carboxylic acid N,N-diethylamide]
Lethal Ratio (male mice): 0/4 | SRS-A Inhibition Ratio % 10^-6 M (SRS-A): 100% | SRS-A Inhibition Ratio % 10^-7 M (SRS-A): 23.3% | % Inhibition (carrageenin edema) (carrageenin edema): 23.2% | inhibition in vivo at 10 mg/kg [1]: 27.2%

CCN(CC)C(=O)c1cccc2c(=O)c(C)c(-c3ccccc3C)oc12 [Example 35, 2',3-dimethylflavone-8-carboxylic acid N,N-diethylamide]
SRS-A Inhibition Ratio % 10^-6 M (SRS-A): 48.8% | SRS-A Inhibition Ratio % 10^-7 M (SRS-A): 18.0% | % Inhibition (carrageenin edema) (carrageenin edema): 13.0% | inhibition in vivo at 10 mg/kg [1]: 13.3%

O=C(O)c1cc(=O)c2c(OCC(O)COc3cccc4oc(C(=O)O)cc(=O)c34)cccc2o1 [sodium cromoglicate]
inhibition of emission of chemical mediators (mast cells): inhibits emission of chemical mediators from mast cells | duration of action (allergic asthma; in vivo): its action is of short duration | pharmaceutical effect by oral administration (allergic asthma; oral): does not show any pharmaceutical effect by oral administration | effect in allergic asthma (allergic asthma; reported by Cox, et al.): effective for allergic asthma
